Measured values taken from US7708998B2, “Methods of inhibiting unwanted cell proliferation using hedgehog antagonists” (Curis, Inc., priority 2000, dated 2010).

Tests used:
Assay type in all cases: cell-based
[1] = tested on: Shh-induced Gli-transcription; experiment: Gli-Luc assay in 10T1/2(s12) cells activated with OCT-SHH; conditions: Gli-Luc response, OCT-SHH 0.3 μg/ml
Description: Compounds to be tested are dissolved in DMSO to a concentration of 10 mM, and stored at −20° C. To activate the Hedgehog pathway in the assay cells, an octylated (lipid-modified) form of the N-terminal fragment of the Sonic Hedgehog protein (OCT-SHH) is used. This N-terminal SHH fragment is produced bacterially.
Compounds may be tested in the “Gli-Luc” assay below, using the cell line 10T(s12), wherein the cells contain a Hedgehog-responsive reporter construct utilizing Luciferase as the reporter gene. In this way, Hedgehog pathway signaling activity can be measured via the Gli-Luc response.
10t1/2(s12) cells are plated in a 96-well micro-titer plate (MTP) at 20,000 cells/well in full medium [DMEM with 10% FBS]. Then plates are placed in the incubator for incubation overnight (O/N), at 37° C. and 5% CO2. After 24 h, the medium is replaced with Luciferase-assay medium (DMEM with 5% FBS). Compounds are thawed and diluted in assay medium at 3:1000 (about 300-fold) resulting in a starting concentration of about 30 μM.
Subsequently, 150 μl of each 30 μM sample is added to the first wells (in triplicate). The MTP samples are then diluted at 3-fold dilutions to a total of seven wells, ultimately resulting in a regiment of seven dilutions in triplicate, for each compound. Next, the protein ligand OCT-SHH is diluted in Luciferase-assay medium and added to each well at a final concentration of 0.3 μg/ml. Plates are then returned to the incubator for further incubation O/N, at 37° C. and 5% CO2. After about 24 h, plates are removed from the incubator and the medium is aspirated/discarded. Wells are washed once with assay buffer [PBS+1 mM Mg^2+ and 1 mM Ca^2+]. Then 50 μl of assay buffer is added to each well. The Luciferase assay reagent is prepared as described by the vendor (LucLite kit from Packard), and 50 μl is added to each well. Plates are incubated at room temperature (RT) for about 30 minutes after which the signals are read, again at RT, on a Topcount (Packard).

[2] = tested on: Shh signaling pathway in MEFs homozygous for ptc-lacZ; experiment: β-galactosidase activity in ptc-lacZ mouse embryonic fibroblasts; conditions: MEFs homozygous for ptc-lacZ (cell line 23-1), normalized to whole protein content
Description: The Shh signaling pathway can be activated in these fibroblasts in cell culture, and that the level of β-galactosidase activity does reflect the degree of pathway activation.

[3] = tested on: hedgehog signaling in embryonic mouse lungs; experiment: embryonic mouse lung explants, Q-RT-PCR of gli-1 and Sp-C; conditions: E13.5 mouse lung explants, Q-RT-PCR normalized to GAPDH
Description: METHODS: E13.5 embryonic mouse lungs were dissected. Explants were grown exposed to the air-liquid interface in lung explant medium (DMEM based, additives optimized for the culture of mouse lungs) for 67 hrs. They were then processed for quantitative real-time PCR (Q-RT-PCR). Briefly, total ribonucleic acid (RNA) is isolated from the tissue and subjected to reverse transcription to generate DNA. This DNA is amplified in a polymerase chain reaction using gene-specific primers as well as primers for the ubiquitously expressed housekeeping gene GAPDH. The two primer sets are labeled with different fluorophores, allowing for quantification of both signals in the same reaction tube in a real-time PCR machine (TaqMan). When calculating the expression level of gli-1, the specific signal is normalized to the GAPDH signal, which serves as a measure of the total DNA used in the reaction.
METHODS: E13.5 old embryonic mouse lungs were dissected. Explants were grown submerged in lung explant medium (DMEM based, additives optimized for the culture of mouse lungs) for 50 hrs. They were then processed for Q-RT-PCR. Briefly, total ribonucleic acid (RNA) is isolated from the tissue and subjected to reverse transcription to generate DNA. […] The two primer sets are labeled with different fluorophores, allowing for quantification of both signals in the same reaction tube in a real-time PCR machine (TaqMan). […]

IC50 [1] | Structure (SMILES) | also measured
< 1 µM | O=C(Cc1cccc(C(F)(F)F)c1)NCCc1nc2ccccc2c(=O)n1-c1ccc(F)cc1 [Compound 50] | 
< 0.5 µM | CCC(C)N(CCC(=O)NC1CCCc2ccccc21)C(=O)c1cccc2ccccc12 (stereo not drawn) [Compound 48] | 
< 5 µM | CC(c1nc2ccccc2c(=O)n1-c1ccc(F)cc1)N(C)C(=O)Nc1cccc(C#N)c1 (stereo not drawn) [Compound 51] | 
< 1 µM | CCC(C)N(CCC(=O)NC1CCCc2ccccc21)C(=O)COc1ccc(Cl)cc1 (stereo not drawn) [Compound 49] | 
 | C[C@H]1CC[C@]2(NC1)O[C@H]1C[C@H]3[C@@H]4CC[C@H]5C[C@@H](O)CC[C@]5(C)[C@H]4CC[C@]3(C)[C@H]1[C@@H]2C [tomatidine] | β-galactosidase activity [2]: non-inhibitory
< 5 µM | CCC(=O)N1CCN(C(CC)c2nc3ccccc3c(=O)n2-c2ccc(C)cc2)C(C)C1 (stereo not drawn) [Compound 42] | 
< 10 µM | CC(c1nc2ccccc2c(=O)n1-c1ccc(F)cc1)N(C)C(=O)Nc1ccc(Cl)cc1[N+](=O)[O-] (stereo not drawn) [Compound 66] | 
< 5 µM | CC(c1nc2ccccc2c(=O)n1-c1ccc(F)cc1)N(C)C(=O)Nc1cc(Cl)nc(Cl)c1 (stereo not drawn) [Compound 58] | 
< 10 µM | CCCCCCCCC(=O)N(CCCCC)C(C)c1nc2ccccc2c(=O)n1-c1ccccc1 (stereo not drawn) [Compound 41] | 
< 5 µM | CC(c1nc2ccccc2c(=O)n1-c1ccc(F)cc1)N(C)C(=O)Nc1ccc(SC(F)(F)F)cc1 (stereo not drawn) [Compound 60] | 
< 5 µM | CCC(c1nc2ccccc2c(=O)[nH]1)N1CCN(C(=O)Nc2ccc(Cl)c(Cl)c2)C(C)C1 (stereo not drawn) [Compound 45] | 
< 5 µM | CCC(c1nc2ccccc2c(=O)n1-c1ccc(C)cc1)N(CCc1ccccc1)C(=O)CCCCF (stereo not drawn) [Compound 39] | 
< 1 µM | CC(c1nc2ccccc2c(=O)n1-c1ccc(F)cc1)N(C)C(=O)Nc1ccc(Cl)c(C(F)(F)F)c1 (stereo not drawn) [Compound 61] | 
< 5 µM | CC(c1nc2ccccc2c(=O)n1-c1ccc(F)cc1)N(C)C(=O)Nc1cccc(F)c1 (stereo not drawn) [Compound 55] | 
< 0.5 µM | O=C(NCc1nc2ccccc2c(=O)n1-c1ccc(F)cc1)Nc1ccc(Cl)c([N+](=O)[O-])c1 [Compound 69] | 
< 10 µM | CC(c1nc2ccccc2c(=O)n1-c1ccc(F)cc1)N1CCN(C(=O)Nc2ccc(Cl)c(Cl)c2)CC1 (stereo not drawn) [Compound 43] | 
< 10 µM | CCCCc1ccc(C(=O)N(Cc2ccccc2)C(CC)c2nc3ccccc3c(=O)n2-c2ccc(C)cc2)cc1 (stereo not drawn) [Compound 40] | 
< 10 µM | CC(c1nc2ccccc2c(=O)n1-c1ccc(F)cc1)N(C)C(=O)Nc1ccc([N+](=O)[O-])cc1Cl (stereo not drawn) [Compound 64] | 
< 5 µM | CCCN(CCC(=O)NC1CCCc2ccccc21)C(=O)c1cc(OC)cc(OC)c1 (stereo not drawn) [Compound 47] | 
< 5 µM | CC(c1nc2ccccc2c(=O)n1-c1ccc(F)cc1)N(C)C(=O)Nc1cccc(C(F)(F)F)c1 (stereo not drawn) [Compound 11] | 
< 1 µM | O=C(NCc1nc2ccccc2c(=O)n1-c1ccc(F)cc1)Nc1ccc(Cl)c(Cl)c1 [Compound 68] | 
< 5 µM | O=C(Nc1cccc(C(F)(F)F)c1)NC(c1nc2ccccc2c(=O)n1-c1ccc(F)cc1)C1CC1 (stereo not drawn) [Compound 75] | 

IC50 [1] | Structure (SMILES) | also measured
< 1 µM | CC(c1nc2ccccc2c(=O)n1-c1ccc(F)cc1)N(C)C(=O)Nc1cccc(SC(F)(F)F)c1 (stereo not drawn) [Compound 52] | 
< 5 µM | CCCN(C(=O)Nc1cccc(OC)c1)C(C)c1nc2ccccc2c(=O)n1-c1ccc(F)cc1 (stereo not drawn) [Compound 38] | 
< 5 µM | CC(c1nc2ccccc2c(=O)n1-c1ccc(F)cc1)N(C)C(=O)Nc1ccc([N+](=O)[O-])c(C(F)(F)F)c1 (stereo not drawn) [Compound 32] | 
< 0.1 µM | O=C(NCc1nc2ccccc2c(=O)n1-c1ccc(F)cc1)Nc1ccc(Cl)c(C(F)(F)F)c1 [Compound 5] | 
< 10 µM | CC(C)c1cccc(NC(=O)N(C)C(C)c2nc3ccccc3c(=O)n2-c2ccc(F)cc2)c1 (stereo not drawn) [Compound 57] | 
< 10 µM | COc1cccc(NC(=O)NCc2nc3ccccc3c(=O)n2-c2ccc(F)cc2)c1C [Compound 71] | 
< 10 µM | CC(c1nc2ccccc2c(=O)n1-c1ccc(F)cc1)N(Cc1ccco1)C(=O)Nc1cccc(F)c1 (stereo not drawn) [Compound 31] | 
< 5 µM | CCCN(C(=O)Nc1cccc(C(F)(F)F)c1)C(C)c1nc2ccccc2c(=O)n1-c1ccc(F)cc1 (stereo not drawn) [Compound 36] | 
< 1 µM | CC(c1nc2ccccc2c(=O)n1-c1ccc(F)cc1)N(C)C(=O)Nc1ccc(Cl)c(Cl)c1 (stereo not drawn) [Compound 53] | 
< 1 µM | O=C(NCc1nc2ccccc2c(=O)n1-c1ccc(F)cc1)Nc1cccc(C(F)(F)F)c1 [Compound 44] | 
< 10 µM | CCOC(=O)c1ccccc1NC(=O)N(C)C(C)c1nc2ccccc2c(=O)n1-c1ccc(F)cc1 (stereo not drawn) [Compound 63] | 
< 5 µM | Cc1c(NC(=O)N(C)C(C)c2nc3ccccc3c(=O)n2-c2ccc(F)cc2)cccc1[N+](=O)[O-] (stereo not drawn) [Compound 59] | 
< 10 µM | CC(c1nc2ccccc2c(=O)n1-c1ccc(F)cc1)N(C)C(=O)Nc1ccc(-c2ccccc2)cc1 (stereo not drawn) [Compound 56] | 
< 5 µM | Cc1c(NC(=O)NCc2nc3ccccc3c(=O)n2-c2ccc(F)cc2)cccc1SC(F)(F)F [Compound 67] | 
< 5 µM | CC(NC(=O)Nc1cccc(C(F)(F)F)c1)c1nc2ccccc2c(=O)n1-c1ccc(F)cc1 (stereo not drawn) [Compound 73] | 
 | C[C@]12CCC(=O)C=C1CC[C@@H]1[C@@H]2[C@@H](O)C[C@@]2(C)[C@H]1CC[C@]2(O)C(=O)CO [hydrocortisone] | surfactant type C (Sp-C) expression [3]: comparable
< 0.5 µM | O=C(NCc1nc2ccccc2c(=O)n1-c1ccc(F)cc1)Nc1cc(Cl)nc(Cl)c1 [Compound 6] | 
< 5 µM | CCCN(C(=O)Nc1cccc(Cl)c1)C(C)c1nc2ccccc2c(=O)n1-c1ccc(F)cc1 (stereo not drawn) [Compound 34] | 
< 0.5 µM | CCC(c1nc2ccccc2c(=O)[nH]1)N1CCN(C(=O)c2ccc(-c3ccccc3)cc2)C(C)C1 (stereo not drawn) [Compound 46] | 
< 5 µM | O=C(NCCCc1nc2ccccc2c(=O)n1-c1ccc(F)cc1)Nc1cccc(C(F)(F)F)c1 [Compound 74] | 
< 5 µM | CC(c1nc2ccccc2c(=O)n1-c1ccc(F)cc1)N(C)C(=O)Nc1ccc(C(F)(F)F)cc1 (stereo not drawn) [Compound 54] | 

Structure (SMILES) | IC50 [1] | also measured
CC(c1nc2ccccc2c(=O)n1-c1ccc(F)cc1)N(C)C(=O)Nc1ccc([N+](=O)[O-])c(Cl)c1 (stereo not drawn) [Compound 62] | < 1 µM | 
CCOOC(=O)c1cccc(NC(=O)N(C)C(C)c2nc3ccccc3c(=O)n2-c2ccc(F)cc2)c1 (stereo not drawn) [Compound 65] | < 10 µM | 
